The results in this text go back to patent US20130109734A1 (Metabolex, Inc., priority 2010, published 2013).

The first experiment has as its target T1, human GPR120 (Homo sapiens, UniProt Q5NUL3).
T1 construct: host or cells: HEK293 cells co-expressing Gqi5
T1 sequence (Q5NUL3 1-361): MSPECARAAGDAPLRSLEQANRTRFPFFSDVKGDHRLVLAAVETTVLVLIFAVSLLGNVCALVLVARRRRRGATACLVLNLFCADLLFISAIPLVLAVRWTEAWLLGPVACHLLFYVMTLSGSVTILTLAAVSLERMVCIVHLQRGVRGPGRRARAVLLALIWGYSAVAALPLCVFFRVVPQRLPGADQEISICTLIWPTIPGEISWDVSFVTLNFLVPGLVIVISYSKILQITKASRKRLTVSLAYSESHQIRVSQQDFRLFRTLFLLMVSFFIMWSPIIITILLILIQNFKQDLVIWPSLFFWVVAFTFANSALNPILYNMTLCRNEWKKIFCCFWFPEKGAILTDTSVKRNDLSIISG
Description: Intracellular Ca2+ assay in human GPR120 stable cell line (HEK293 co-expressing Gqi5), Flexstation. The experiment is classed as cell-based. As to conditions: % activity at 5 μM compared to the maximal activity of GW9508 at 6.7 μM (=100%); human GPR120 cells, Ca2+ fluorescence. The procedure, abridged:
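HEK293 cells stably co-expressing Gqi5 and Flag-tagged human GPR120, loaded with Calcium 4 dye in HBSS/HEPES pH 7.4 at 37 °C; compounds at eight concentrations, 0.00001–20 μM, fluorescence (485/525 nm) read 90 s. EC50 from Max−Min change; percent activity relative to GW9508 maximum at 6.7 μM.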
Turning to `CC1(C)Cc2cc(F)cc(COc3ccc4c(CC(=O)O)cc(=O)oc4c3)c2O1` [Example 263, 2-(7-((5-fluoro-2,2-dimethyl-2,3-dihydrobenzofuran-7-yl)methoxy)-2-oxo-2H-chromen-4-yl)acetic acid], the “% Activity (GW9508 Reference Compound)” value was 5.98%. Still for that read-out and setting: to `Cc1cc(CC(C)C(=O)O)ccc1OCc1cc(Cl)cc2c1OC(C)(C)C2` (stereo not shown) [Example 11, 3-(4-((5-chloro-2,2-dimethyl-2,3-dihydrobenzofuran-7-yl)methoxy)-3-methylphenyl)-2-methylpropanoic acid] belongs 124.2119%. Still for that read-out and setting: the result for `CC1(C)Cc2cc(F)cc(COc3ccc4c(c3)CCC4CC(=O)O)c2O1` (stereo not shown) [Example 37, 2-(5-((5-fluoro-2,2-dimethyl-2,3-dihydrobenzofuran-7-yl)methoxy)-2,3-dihydro-1H-inden-1-yl)acetic acid] reads 124.7%; that for `CC1(C)Cc2c(COc3ccc4c(c3)CCC4CC(=O)O)ccc(F)c2O1` (stereo not shown) [Example 94, 2-(5-((7-fluoro-2,2-dimethyl-2,3-dihydrobenzofuran-4-yl)methoxy)-2,3-dihydro-1H-inden-1-yl)acetic acid], 98.45%. The same measure, in the same setting: the result for `CC1(C)Cc2cccc(COc3c(F)cc(C4CC4C(=O)O)cc3F)c2O1` (stereo not shown) [Example 24, 2-(4-((2,2-dimethyl-2,3-dihydrobenzofuran-7-yl)methoxy)-3,5-difluorophenyl)cyclopropanecarboxylic acid] reads 100.3%; that for `CC(CC(=O)O)Cc1ccc(OCc2cc(F)cc3c2OC(C)(C)C3)cc1` (stereo not shown) [Example 182, 4-(4-((5-fluoro-2,2-dimethyl-2,3-dihydrobenzofuran-7-yl)methoxy)phenyl)-3-methylbutanoic acid], 98.43%. With `CC(Cc1cc(F)c(OCc2cc(OCc3ccccc3)cc3c2OC(C)(C)C3)c(F)c1)C(=O)O` (stereo not shown) [Example 111, 3-(4-((5-(benzyloxy)-2,2-dimethyl-2,3-dihydrobenzofuran-7-yl)methoxy)-3,5-difluorophenyl)-2-methylpropanoic acid], the “% Activity (GW9508 Reference Compound)” value was determined as 51.55%. With `CC(Cc1ccc(OCc2cc(Cl)cc3c2OC(C)(C)C3O)cc1)C(=O)O` (stereo not shown) [Example 130, 3-(4-((5-chloro-3-hydroxy-2,2-dimethyl-2,3-dihydrobenzofuran-7-yl)methoxy)phenyl)-2-methylpropanoic acid], the “% Activity (GW9508 Reference Compound)” value is reported as 103.85%.

Take `CC1(C)Cc2cc(F)cc(CCc3ccc(OCC(=O)O)cc3)c2O1` [Example 70, 2-(4-(2-(5-fluoro-2,2-dimethyl-2,3-dihydrobenzofuran-7-yl)ethyl)phenoxy)acetic acid]: the “% Activity (GW9508 Reference Compound)” value is listed as 117.72%. With `CC1(C)Cc2cc(Cl)cc(COc3c(F)cc(C4CC4C(=O)O)cc3F)c2O1` (racemic) [Example 35, 2-(4-((5-chloro-2,2-dimethyl-2,3-dihydrobenzofuran-7-yl)methoxy)-3,5-difluorophenyl)cyclopropanecarboxylic acid], the “% Activity (GW9508 Reference Compound)” value amounted to 60.11%. Same read-out and setting: to `CC(Cc1ccc(OCc2c(F)ccc3c2CC(C)(C)O3)cc1)C(=O)O` (stereo not shown) [Example 96, 3-(4-((5-fluoro-2,2-dimethyl-2,3-dihydrobenzofuran-4-yl)methoxy)phenyl)-2-methylpropanoic acid] belongs 124.82%; to `[2H]C1([2H])c2cc(F)cc(COc3ccc(CC(C)C(=O)O)cc3)c2OC1(C)C` (stereo not shown) [Example 145, 3-(4-((3,3-dideuterio-5-fluoro-2,2-dimethyl-2,3-dihydrobenzofuran-7-yl)methoxy)phenyl)-2-methylpropanoic acid], 143.69%; to `CC1(C)Cc2cc(F)cc(COc3ccc(CCCC(=O)O)cc3)c2O1` [Example 160, 4-(4-((5-fluoro-2,2-dimethyl-2,3-dihydrobenzofuran-7-yl)methoxy)phenyl)butanoic acid], 172.13%. Same read-out and setting: to `C[C@H](Cc1ccc(OCc2cc(Cl)cc3c2OC(C)(C)C3)c(C(F)(F)F)c1)C(=O)O` [Example 143, (R)-3-(4-((5-chloro-2,2-dimethyl-2,3-dihydrobenzofuran-7-yl)methoxy)-3-(trifluoromethyl)phenyl)-2-methylpropanoic acid] belongs 90.56%; to `CC(Cc1ccc(OCc2cc(F)cc3c2OC2(CCCC2)C3)cc1)C(=O)O` (stereo not shown) [Example 162, 3-(4-((5-fluoro-3H-spiro[benzofuran-2,1′-cyclopentane]-7-yl)methoxy)phenyl)-2-methylpropanoic acid], 154.48%. On the same count and under the same terms, to `CC(Cc1ccc(OCc2cc(Cl)cc3c2OC(C)(C)C3)c(Cl)c1)C(=O)O` (stereo not shown) [Example 12, 3-(3-chloro-4-((5-chloro-2,2-dimethyl-2,3-dihydrobenzofuran-7-yl)methoxy)phenyl)-2-methylpropanoic acid] belongs 116.1354%. Turning to `CC1(C)Cc2cccc(COc3c(F)cc(CCC(=O)O)cc3F)c2O1` [Example 25, 3-(4-((2,2-dimethyl-2,3-dihydrobenzofuran-7-yl)methoxy)-3,5-difluorophenyl)propanoic acid], the “% Activity (GW9508 Reference Compound)” value is on record as 101.8%. As for `[2H]C([2H])(Oc1ccc(CC(C)C(=O)O)cc1C(F)(F)F)c1cc(F)cc2c1OC(C)(C)C2` (stereo not shown) [Example 231, 3-(4-(dideuterio(5-fluoro-2,2-dimethyl-2,3-dihydrobenzofuran-7-yl)methoxy)-3-(trifluoromethyl)phenyl)-2-methylpropanoic acid], the “% Activity (GW9508 Reference Compound)” value amounted to 101.01%. Turning to `COc1cc(OCc2cc(F)cc3c2OC(C)(C)C3)ccc1CCC(=O)O` [Example 50, 3-(4-((5-fluoro-2,2-dimethyl-2,3-dihydrobenzofuran-7-yl)methoxy)-2-methoxyphenyl)propanoic acid], the “% Activity (GW9508 Reference Compound)” value was determined as 129.78%. Regarding `Cc1cc(COc2c(F)cc(CC(C)C(=O)O)cc2F)c2c(c1)CC(C)(C)O2` (stereo not shown) [Example 5, 3-(3,5-difluoro-4-((2,2,5-trimethyl-2,3-dihydrobenzofuran-7-yl)methoxy)phenyl)-2-methylpropanoic acid], the “% Activity (GW9508 Reference Compound)” value is 149.2%. The same measure, in the same setting: to `CC(Cc1cc(Cl)c(OCc2cc(Cl)cc3c2OC(C)(C)C3)c(Cl)c1)C(=O)O` (stereo not shown) [Example 14, 3-(3,5-dichloro-4-((5-chloro-2,2-dimethyl-2,3-dihydrobenzofuran-7-yl)methoxy)phenyl)-2-methylpropanoic acid] belongs 84.49%. The same measure, in the same setting: the result for `CC(Cc1cc(F)c(OCc2cccc3c2OC(C)(C)CC3)c(F)c1)C(=O)O` (stereo not shown) [Example 2, 3-(4-((2,2-dimethylchroman-8-yl)methoxy)-3,5-difluorophenyl)-2-methylpropanoic acid] reads 134.6745%. On the same count and under the same terms, to `CC1(C)Cc2cc(F)cc(COc3ccc(CCC(=O)O)c4c3CCCC4)c2O1` [Example 218, 3-(4-((5-fluoro-2,2-dimethyl-2,3-dihydrobenzofuran-7-yl)methoxy)-5,6,7,8-tetrahydronaphthalen-1-yl)propanoic acid] belongs 114.48%; to `Cc1cc(OCc2cc(F)cc3c2OC(C)(C)C3)ccc1CCC(=O)O` [Example 46, 3-(4-((5-fluoro-2,2-dimethyl-2,3-dihydrobenzofuran-7-yl)methoxy)-2-methylphenyl)propanoic acid], 113.55%; to `Cc1cc2cccc(COc3c(F)cc(CC(C)C(=O)O)cc3F)c2s1` (stereo not shown) [Example 151, 3-(3,5-difluoro-4-((2-methylbenzo[b]thiophen-7-yl)methoxy)phenyl)-2-methylpropanoic acid], 117.38%.

`CC(Cc1ccc(OCc2cc(F)cc3c2OCOC3)cc1)C(=O)O` (stereo not shown) [Example 45, 3-(4-((6-fluoro-4H-benzo[d][1,3]dioxin-8-yl)methoxy)phenyl)-2-methylpropanoic acid]: the “% Activity (GW9508 Reference Compound)” value is 79.58%.

Regarding `CC(Cc1ccc(OCc2ccc(C(F)(F)F)c3c2OC(C)(C)C3)cc1)C(=O)O` (stereo not shown) [Example 34, 3-(4-((2,2-dimethyl-4-(trifluoromethyl)-2,3-dihydrobenzofuran-7-yl)methoxy)phenyl)-2-methylpropanoic acid], the “% Activity (GW9508 Reference Compound)” value stood at 117.9%. Still for that read-out and setting: the result for `CC(Cc1cc(F)c(OCc2c(F)c(F)cc3c2OC(C)(C)C3)c(F)c1)C(=O)O` (stereo not shown) [Example 42, 3-(4-((5,6-difluoro-2,2-dimethyl-2,3-dihydrobenzofuran-7-yl)methoxy)-3,5-difluorophenyl)-2-methylpropanoic acid] reads 140.94%; that for `CC(Cc1cc(F)c(OCc2cccc3c2OC(C)(C)C3)c(F)c1)C(=O)O` (stereo not shown) [Example 23, 3-(4-((2,2-dimethyl-2,3-dihydrobenzofuran-7-yl)methoxy)-3,5-difluorophenyl)-2-methylpropanoic acid], 112.7429%. The same measure, in the same setting: the result for `CCc1cc(OCc2cccc3c2CC(C)(C)O3)ccc1CCC(=O)O` [Example 140, 3-(4-((2,2-dimethyl-2,3-dihydrobenzofuran-4-yl)methoxy)-2-ethylphenyl)propanoic acid] reads 146.18%.

The same experiment, now with this note: human GPR120 cells, Ca2+ fluorescence; reference compounds, typical value.
On to `CC1(C)Cc2cccc(COc3c(F)cc(CCC(=O)O)cc3F)c2O1` [Example 25, 3-(4-((2,2-dimethyl-2,3-dihydrobenzofuran-7-yl)methoxy)-3,5-difluorophenyl)propanoic acid], for which the “concentration at which activity reached a maximum” value is on record as “approximately 2.5 μM”.
